Laboratory results published in US12655116B2, “Substituted isophthalic acid diamides” (Bayer Aktiengesellschaft, priority 2020, dated 2026).

Columns and labels:
ABUTH [1] = assay: Post-emergence herbicidal action against ABUTH; format: in vivo, Abutilon theophrasti; conditions: Abutilon theophrasti, 504 h, visual assessment about 3 weeks after treatment vs untreated controls; for pest or weed control at 20 g/ha: dosage 20 g/ha
Outline: (§1)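 Weeds in sandy loam soil received a post-emergence spray at the one-leaf stage. Compounds were applied as WP or EC in water, 600 to 800 l/ha, with 0.2% wetting agent. Activity in % was judged visually after roughly 3 weeks against untreated plants.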

SETVI [2] = assay: Post-emergence herbicidal action against SETVI; format: in vivo, Setaria viridis; conditions: Setaria viridis, 504 h; for pest or weed control at 5 g/ha: dosage 5 g/ha; for pest or weed control at 20 g/ha: dosage 20 g/ha
Outline: as §1

MATIN [3] = assay: Post-emergence herbicidal action against MATIN; format: in vivo, Matricaria inodora; conditions: Tripleurospermum inodorum, 504 h; for pest or weed control at 20 g/ha: dosage 20 g/ha
Outline: as §1

DIGSA [4] = assay: Pre-emergence herbicidal action against DIGSA; format: in vivo, Digitaria sanguinalis; conditions: Digitaria sanguinalis, 504 h; for pest or weed control at 20 g/ha: dosage 20 g/ha; for pest or weed control at 80 g/ha: dosage 80 g/ha
Outline: (§2)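 Visual rating at 3 weeks vs untreated pots; 0–100% scale, 100% = plants died. Treatment: aqueous WP/EC spray onto covering soil, 600–800 l/ha, 0.2% wetter, seeds in sandy loam.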

VIOTR [5] = assay: Pre-emergence herbicidal action against VIOTR; format: in vivo, Viola tricolor; conditions: Viola tricolor, 504 h; for pest or weed control at 20 g/ha: dosage 20 g/ha; for pest or weed control at 80 g/ha: dosage 80 g/ha
Outline: as §2

MATIN [6] = assay: Pre-emergence herbicidal action against MATIN; format: in vivo, Matricaria inodora; conditions: Tripleurospermum inodorum, 504 h; for pest or weed control at 20 g/ha: dosage 20 g/ha; for pest or weed control at 80 g/ha: dosage 80 g/ha
Outline: as §2

VIOTR [7] = assay: Post-emergence herbicidal action against VIOTR; format: in vivo, Viola tricolor; conditions: Viola tricolor, 504 h
Outline: as §1

ALOMY [8] = assay: Pre-emergence herbicidal action against ALOMY; format: in vivo, Alopecurus myosuroides; conditions: Alopecurus myosuroides, 504 h; 80 g/ha, pre-emergence, scored visually after 3 weeks vs untreated controls (100% = plants have died, 0% = like control plants)
Outline: as §2

SETVI [9] = assay: Pre-emergence herbicidal action against SETVI; format: in vivo, Setaria viridis; conditions: Setaria viridis, 504 h; for pest or weed control at 20 g/ha: dosage 20 g/ha; for pest or weed control at 80 g/ha: dosage 80 g/ha
Outline: as §2

AMARE [10] = assay: Pre-emergence herbicidal action against AMARE; format: in vivo, Amaranthus retroflexus; conditions: Amaranthus retroflexus, 504 h, scored visually after 3 weeks vs untreated controls, 100% = plants have died, 0% = like control plants
Outline: as §2

AVEFA = assay: Pre-emergence herbicidal action against AVEFA; format: in vivo, Avena fatua; conditions: Avena fatua, 504 h, pre-emergence
Outline: as §2

PHBPU [11] = assay: Pre-emergence herbicidal action against PHBPU; format: in vivo, Pharbitis purpurea; conditions: Ipomoea purpurea, 504 h; for pest or weed control at 80 g/ha: dosage 80 g/ha
Outline: as §2

AMARE [12] = assay: Post-emergence herbicidal action against AMARE; format: in vivo, Amaranthus retroflexus; conditions: Amaranthus retroflexus, 504 h, 20 g/ha, visual assessment about 3 weeks after treatment, 100% = plants have died, 0% = like control plants
Outline: as §1

LOLRI = assay: Pre-emergence herbicidal action against LOLRI; format: in vivo, Lolium rigidum; conditions: Lolium rigidum, 504 h, 80 g/ha
Outline: as §2

ALOMY [13] = assay: Post-emergence herbicidal action against ALOMY; format: in vivo, Alopecurus myosuroides; conditions: Alopecurus myosuroides, 504 h, dosage 20 g/ha, visual assessment about 3 weeks after treatment vs untreated controls
Outline: as §1

DIGSA [14] = assay: Post-emergence herbicidal action against DIGSA; format: in vivo, Digitaria sanguinalis; conditions: Digitaria sanguinalis, 504 h
Outline: as §1

POLCO = assay: Pre-emergence herbicidal action against POLCO; format: in vivo, Polygonum convolvulus; conditions: Fallopia convolvulus, 504 h, dosage 80 g/ha
Outline: as §2

ABUTH [15] = assay: Pre-emergence herbicidal action against ABUTH; format: in vivo, Abutilon theophrasti; conditions: Abutilon theophrasti, 504 h; for pest or weed control at 80 g/ha: scored visually after 3 weeks vs untreated controls (100% = plants have died, 0% = like control plants)
Outline: as §2

ECHCG [16] = assay: Post-emergence herbicidal action against ECHCG; format: in vivo, Echinochloa crus-galli; conditions: Echinochloa crus-galli, 504 h; for pest or weed control at 20 g/ha: dosage 20 g/ha
Outline: as §1

VERPE = assay: Pre-emergence herbicidal action against VERPE; format: in vivo, Veronica persica; conditions: Veronica persica, 504 h, dosage 80 g/ha
Outline: as §2

ECHCG [17] = assay: Pre-emergence herbicidal action against ECHCG; format: in vivo, Echinochloa crus-galli; conditions: Echinochloa crus-galli, 504 h
Outline: as §2

PHBPU [18] = assay: Post-emergence herbicidal action against PHBPU; format: in vivo, Pharbitis purpurea; conditions: Ipomoea purpurea, 504 h, dosage 20 g/ha
Outline: as §1

CCn1nnnc1NC(=O)c1ccc(I)c(C(=O)NC2CC2)c1Cl [Example 2-197]
90%: pest or weed control at 80 g/ha (ALOMY [8]) | pest or weed control at 20 g/ha (SETVI [9]) | pest or weed control at 80 g/ha (PHBPU [11]) | pest or weed control at 20 g/ha (AMARE [12]) | pest or weed control at 80 g/ha (LOLRI) | pest or weed control at 20 g/ha (ALOMY [13]) | pest or weed control at 20 g/ha (DIGSA [14]) | pest or weed control at 20 g/ha (ECHCG [16]) | pest or weed control at 80 g/ha (VERPE)
100%: pest or weed control at 20 g/ha (SETVI [2]) | pest or weed control at 20 g/ha (DIGSA [4]) | pest or weed control at 80 g/ha (DIGSA [4]) | pest or weed control at 20 g/ha (VIOTR [5]) | pest or weed control at 80 g/ha (VIOTR [5]) | pest or weed control at 80 g/ha (MATIN [6]) | pest or weed control at 20 g/ha (VIOTR [7]) | pest or weed control at 80 g/ha (SETVI [9]) | pest or weed control at 20 g/ha (AMARE [10]) | pest or weed control at 80 g/ha (AMARE [10]) | pest or weed control at 80 g/ha (AVEFA) | pest or weed control at 80 g/ha (POLCO) | pest or weed control at 80 g/ha (ABUTH [15]) | pest or weed control at 80 g/ha (ECHCG [17])
80%: pest or weed control at 20 g/ha (ABUTH [1]) | pest or weed control at 5 g/ha (SETVI [2]) | pest or weed control at 20 g/ha (MATIN [3]) | pest or weed control at 20 g/ha (MATIN [6]) | pest or weed control at 5 g/ha (VIOTR [7]) | pest or weed control at 20 g/ha (AVEFA; 20 g/ha, scored visually after 3 weeks, 100% = plants have died, 0% = like control plants) | pest or weed control at 20 g/ha (PHBPU [11]; dosage 20 g/ha)

Cn1nnnc1NC(=O)c1ccc(C(F)(F)F)c(C(=O)NC2CC2)c1C1CC1 [Example 1-288]
80%: pest or weed control at 5 g/ha (ABUTH [1]; dosage 5 g/ha) | pest or weed control at 20 g/ha (ABUTH [1]) | pest or weed control at 5 g/ha (SETVI [2]) | pest or weed control at 80 g/ha (LOLRI) | pest or weed control at 20 g/ha (PHBPU [18]) | pest or weed control at 80 g/ha (POLCO) | pest or weed control at 5 g/ha (ECHCG [16]; dosage 5 g/ha) | pest or weed control at 20 g/ha (ECHCG [16]) | pest or weed control at 20 g/ha (ECHCG [17]; 20 g/ha)
90%: pest or weed control at 5 g/ha (MATIN [3]; dosage 5 g/ha) | pest or weed control at 5 g/ha (VIOTR [7]) | pest or weed control at 20 g/ha (VIOTR [7]) | pest or weed control at 80 g/ha (ALOMY [8]) | pest or weed control at 80 g/ha (AVEFA) | pest or weed control at 20 g/ha (ALOMY [13]) | pest or weed control at 5 g/ha (DIGSA [14]; 5 g/ha)
100%: pest or weed control at 20 g/ha (SETVI [2]) | pest or weed control at 20 g/ha (MATIN [3]) | pest or weed control at 20 g/ha (DIGSA [4]) | pest or weed control at 80 g/ha (DIGSA [4]) | pest or weed control at 20 g/ha (VIOTR [5]) | pest or weed control at 80 g/ha (VIOTR [5]) | pest or weed control at 20 g/ha (MATIN [6]) | pest or weed control at 80 g/ha (MATIN [6]) | pest or weed control at 20 g/ha (SETVI [9]) | pest or weed control at 80 g/ha (SETVI [9]) | pest or weed control at 20 g/ha (AMARE [10]) | pest or weed control at 80 g/ha (AMARE [10]) | pest or weed control at 80 g/ha (PHBPU [11]) | pest or weed control at 20 g/ha (AMARE [12]) | pest or weed control at 20 g/ha (DIGSA [14]) | pest or weed control at 80 g/ha (ABUTH [15]) | pest or weed control at 20 g/ha (ABUTH [15]; dosage 20 g/ha, scored visually after 3 weeks vs untreated controls, 100% = plants have died, 0% = like control plants, read-out: Pre-emergence action against ABUTH (herbicidal activity in percent)) | pest or weed control at 80 g/ha (VERPE) | pest or weed control at 80 g/ha (ECHCG [17])
